Results published in ChEMBL document CHEMBL3351341, “Discovery of a potent and selective EGFR inhibitor (AZD9291) of both sensitizing and T790M resistance mutations that spares the wild type form of the receptor” (J Med Chem, 2014).
≈ marks a conversion by molar mass, not a printed value.

Experiments:
Mus musculus [1] = assay: Inhibition of EGFR exon 19 deletion activating mutant phosphorylation in human PC9 cells xenografted in SCID mouse at 10 mg/kg, po measured 1 hr post dose; format: functional; conditions: PC-9, 1 h
Mus musculus [2] = assay: Inhibition of EGFR exon 19 deletion activating mutant phosphorylation in human PC9 cells xenografted in SCID mouse at 10 mg/kg, po measured 24 hrs post dose; format: functional; conditions: PC-9, 24 h
NCI-H1975 [3] = assay: Antitumor activity against human NCI-H1975 cells harboring EGFR L858R/[…] double mutant xenografted in SCID mouse assessed as tumor growth inhibition at 10 mg/kg/day, po qd for 7 days relative to control; format: functional; conditions: for inhibition in vivo at 10 mg/kg/day: Mus musculus, NCI-H1975, 168 h, read-out: TGI
Mus musculus [4] = assay: Inhibition of EGFR L858R/[…] double mutant phosphorylation in human NCI-H1975 cells xenografted in SCID mouse at 10 mg/kg, po measured 30 hrs post dose; format: functional; conditions: NCI-H1975, 30 h
Mus musculus [5] = assay: Inhibition of EGFR exon 19 deletion activating mutant phosphorylation in human PC9 cells xenografted in SCID mouse at 10 mg/kg, po measured 30 hrs post dose; format: functional; conditions: PC-9, 30 h
A-431 [6] = assay: Antitumor activity against human A431 cells xenografted in SCID mouse assessed as tumor growth inhibition at 10 mg/kg/day, po qd for 7 days relative to control; format: functional; conditions: for inhibition in vivo at 10 mg/kg/day: Mus musculus, A-431, 168 h, read-out: TGI
Mus musculus [7] = assay: Inhibition of EGFR L858R/[…] double mutant phosphorylation in human NCI-H1975 cells xenografted in SCID mouse at 10 mg/kg, po measured 1 hr post dose; format: functional; conditions: NCI-H1975, 1 h
Mus musculus [8] = assay: Inhibition of EGFR L858R/[…] double mutant phosphorylation in human NCI-H1975 cells xenografted in SCID mouse at 10 mg/kg, po measured 24 hrs post dose; format: functional; conditions: NCI-H1975, 24 h
[9] = Antitumor activity against human PC9 cells harboring EGFR exon 19 deletion activating mutant xenografted in SCID mouse assessed as tumor growth inhibition at 10 mg/kg/day, po qd for 7 days relative to control; format: functional, PC-9
Mus musculus [10] = assay: Inhibition of EGFR L858R/[…] double mutant phosphorylation in human NCI-H1975 cells xenografted in SCID mouse at 10 mg/kg, po measured 16 hrs post dose; format: functional; conditions: NCI-H1975, 16 h
[11] = biological target: T1, Insulin-like growth factor 1 receptor (Homo sapiens, UniProt P08069); assay: Inhibition of IGF1R (unknown origin)
Insulin receptor [12] = biological target: T2, Insulin receptor (Homo sapiens, UniProt P06213); assay: Inhibition of INSR (unknown origin) at 1 uM relative to control
[13] = biological target: T1, Insulin-like growth factor 1 receptor; assay: Inhibition of IGF1R (unknown origin) at 1 uM relative to control
Insulin receptor [14] = biological target: T2, Insulin receptor; assay: Inhibition of INSR (unknown origin)
Mus musculus [15] = assay: Inhibition of EGFR L858R/[…] double mutant phosphorylation in human NCI-H1975 cells xenografted in SCID mouse at 10 mg/kg, po measured 6 hrs post dose; format: functional; conditions: NCI-H1975, 6 h
Mus musculus [16] = assay: Inhibition of EGFR exon 19 deletion activating mutant phosphorylation in human PC9 cells xenografted in SCID mouse at 10 mg/kg, po measured 16 hrs post dose; format: functional; conditions: PC-9, 16 h
Mus musculus [17] = assay: Inhibition of EGFR exon 19 deletion activating mutant phosphorylation in human PC9 cells xenografted in SCID mouse at 10 mg/kg, po measured 6 hrs post dose; format: functional; conditions: PC-9, 6 h
[18] = Intrinsic clearance in rat hepatocytes measured per 10^6 cells; format: ADME, cell-based, Hepatocyte; conditions: read-out: CLH
A-431 [19] = assay: Antitumor activity against human A431 cells xenografted in SCID mouse assessed as tumor growth inhibition at 5 mg/kg/day, po qd for 7 days relative to control; format: functional
Rattus norvegicus [20] = assay: Toxicity in rat at 200 mg/kg, po as single dose measured over 24 hrs; format: organism-based; set-up: dose 200 mg/kg, route oral; conditions: in vivo
[21] = Fraction unbound in Han Wistar rat plasma; format: ADME, cell-free
Rattus norvegicus [22] = assay: Toxicity in rat assessed as hyperglycemia at 200 mg/kg, po as single dose measured over 24 hrs; format: organism-based; set-up: dose 200 mg/kg, route oral; conditions: in vivo
NCI-H1975 [23] = assay: Cytotoxicity against human NCI-H1975 cells harboring EGFR L858R/[…] double mutant assessed as growth inhibition after 72 hrs by SYTOX green nucleic acid staining-based fluorescence assay; format: functional
A-431 [24] = assay: Antitumor activity against human A431 cells xenografted in SCID mouse assessed as tumor growth inhibition at […], po qd for 7 days relative to control; format: functional
[25] = Oral bioavailability in Han Wistar rat at 5 mg/kg; format: ADME, organism-based; conditions: in vivo
NCI-H1975 [26] = assay: Antitumor activity against human NCI-H1975 cells harboring EGFR L858R/[…] double mutant xenografted in SCID mouse assessed as tumor growth inhibition at 5 mg/kg/day, po qd for 7 days relative to control; format: functional
Cavia porcellus = assay: Cardiotoxicity in anesthetized guinea pig assessed as QT prolongation at fCmax concentration; format: toxicity, organism-based; conditions: in vivo
[27] = Lipophilicity, log D of the compound at pH 7.4; format: physicochemical; conditions: buffer
[28] = Cytotoxicity against human Calu3 cells assessed as growth inhibition after 72 hrs by SYTOX green nucleic acid staining-based fluorescence assay; format: functional, Calu-3
Plasma [29] = assay: Drug metabolism in rat plasma assessed as loss of indole N-methyl group; format: ADME, cell-free
[30] = Unbound fraction in nude mouse plasma; format: ADME, cell-free
Rattus norvegicus [31] = assay: Clearance in iv dosed Han Wistar rat; format: ADME, organism-based; conditions: in vivo
[32] = Intrinsic clearance in human hepatocytes measured per 10^6 cells; format: ADME, cell-based, Hepatocyte; conditions: read-out: CLH
NCI-H1975 [33] = assay: Antitumor activity against human NCI-H1975 cells harboring EGFR L858R/[…] double mutant xenografted in SCID mouse assessed as tumor growth inhibition at […], po qd for 7 days relative to control; format: functional
[34] = Thermodynamic solubility of the compound at pH 7.4; format: physicochemical; conditions: buffer, read-out: Therm_solubility
[35] = Cmax in mouse at 10 mg/kg, po; format: ADME, organism-based; set-up: dose 10 mg/kg, route oral; conditions: in vivo
[36] = Cytotoxicity against human PC9 cells harboring EGFR exon 19 deletion activating mutant assessed as growth inhibition after 72 hrs by SYTOX green nucleic acid staining-based fluorescence assay; format: functional, PC-9
Plasma [37] = assay: Drug metabolism in mouse plasma assessed as loss of indole N-methyl group; format: ADME, cell-free
Plasma [38] = assay: Drug metabolism in rat plasma assessed as dealkylation of compound; format: ADME, cell-free
Plasma [39] = assay: (§1) Unbound fraction in human plasma; format: ADME, cell-free
[40] = Half life of the compound by GSH reduction assay; format: physicochemical; conditions: glutathione (GSH)
Plasma [41] = assay: Drug metabolism in mouse plasma assessed as dealkylation of compound; format: ADME, cell-free
Plasma [42] = assay: Drug metabolism in rat plasma treated with N-[2-(2-Dimethylaminoethylmethylamino)-4-methoxy-5-[[4-(1-methylindol-3-yl)pyrimidin-2-yl]amino]phenyl]prop-2-enamide; format: ADME, cell-free
[43] = biological target: Voltage-gated inwardly rectifying potassium channel KCNH2 (Homo sapiens, UniProt Q12809); assay: Inhibition of human ERG
[44] = as §1; format: ADME, cell-free
Plasma [45] = assay: Drug metabolism in mouse plasma treated with N-[2-(2-Dimethylaminoethylmethylamino)-4-methoxy-5-[[4-(1-methylindol-3-yl)pyrimidin-2-yl]amino]phenyl]prop-2-enamide; format: ADME, cell-free
NCI-H1975 [46] = assay: Antitumor activity against human NCI-H1975 cells harboring EGFR L858R/[…] double mutant xenografted in SCID mouse assessed as tumor growth inhibition at 20 mg/kg/day, po qd for 7 days relative to control; format: functional; conditions: NCI-H1975, 168 h, read-out: TGI
A-431 [47] = assay: Antitumor activity against human A431 cells xenografted in SCID mouse assessed as tumor growth inhibition at 20 mg/kg/day, po qd for 7 days relative to control; format: functional; conditions: A-431, 168 h, read-out: TGI

T1 sequence (P08069 31-736 limits assumed): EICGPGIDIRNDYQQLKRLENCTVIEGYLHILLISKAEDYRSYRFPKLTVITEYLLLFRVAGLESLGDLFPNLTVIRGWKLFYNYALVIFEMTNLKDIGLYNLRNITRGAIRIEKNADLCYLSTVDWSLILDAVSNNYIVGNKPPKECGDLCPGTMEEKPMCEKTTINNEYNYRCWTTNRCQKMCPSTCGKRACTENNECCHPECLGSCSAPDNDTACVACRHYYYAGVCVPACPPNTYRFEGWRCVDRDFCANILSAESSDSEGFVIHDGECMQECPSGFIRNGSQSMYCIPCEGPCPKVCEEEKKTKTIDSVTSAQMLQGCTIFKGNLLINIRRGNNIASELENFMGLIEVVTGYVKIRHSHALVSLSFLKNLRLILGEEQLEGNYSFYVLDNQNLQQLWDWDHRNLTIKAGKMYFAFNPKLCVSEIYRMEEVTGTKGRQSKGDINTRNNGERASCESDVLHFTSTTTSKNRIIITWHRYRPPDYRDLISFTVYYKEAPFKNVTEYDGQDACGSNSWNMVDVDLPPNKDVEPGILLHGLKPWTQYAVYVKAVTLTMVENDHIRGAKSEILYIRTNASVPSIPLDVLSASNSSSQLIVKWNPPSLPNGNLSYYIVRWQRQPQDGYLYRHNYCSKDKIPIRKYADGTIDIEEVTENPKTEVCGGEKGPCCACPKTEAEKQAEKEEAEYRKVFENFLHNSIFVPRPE
T1 sequence (P08069 741-1367 limits assumed): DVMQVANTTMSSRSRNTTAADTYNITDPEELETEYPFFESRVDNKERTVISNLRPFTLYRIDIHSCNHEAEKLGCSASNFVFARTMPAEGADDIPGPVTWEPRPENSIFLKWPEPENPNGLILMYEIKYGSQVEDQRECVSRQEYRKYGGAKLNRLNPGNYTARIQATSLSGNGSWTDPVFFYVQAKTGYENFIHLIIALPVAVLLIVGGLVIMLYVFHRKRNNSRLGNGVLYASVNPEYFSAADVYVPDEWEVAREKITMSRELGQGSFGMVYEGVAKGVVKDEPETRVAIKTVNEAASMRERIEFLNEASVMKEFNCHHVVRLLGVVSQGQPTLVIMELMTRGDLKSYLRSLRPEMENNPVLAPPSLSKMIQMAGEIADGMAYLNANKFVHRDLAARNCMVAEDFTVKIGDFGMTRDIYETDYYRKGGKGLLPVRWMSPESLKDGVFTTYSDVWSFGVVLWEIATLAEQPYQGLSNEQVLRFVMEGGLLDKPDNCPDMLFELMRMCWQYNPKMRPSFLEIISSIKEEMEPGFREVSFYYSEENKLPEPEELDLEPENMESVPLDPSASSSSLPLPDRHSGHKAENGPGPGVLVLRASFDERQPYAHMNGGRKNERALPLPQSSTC
T2 sequence (P06213 28-758 limits assumed): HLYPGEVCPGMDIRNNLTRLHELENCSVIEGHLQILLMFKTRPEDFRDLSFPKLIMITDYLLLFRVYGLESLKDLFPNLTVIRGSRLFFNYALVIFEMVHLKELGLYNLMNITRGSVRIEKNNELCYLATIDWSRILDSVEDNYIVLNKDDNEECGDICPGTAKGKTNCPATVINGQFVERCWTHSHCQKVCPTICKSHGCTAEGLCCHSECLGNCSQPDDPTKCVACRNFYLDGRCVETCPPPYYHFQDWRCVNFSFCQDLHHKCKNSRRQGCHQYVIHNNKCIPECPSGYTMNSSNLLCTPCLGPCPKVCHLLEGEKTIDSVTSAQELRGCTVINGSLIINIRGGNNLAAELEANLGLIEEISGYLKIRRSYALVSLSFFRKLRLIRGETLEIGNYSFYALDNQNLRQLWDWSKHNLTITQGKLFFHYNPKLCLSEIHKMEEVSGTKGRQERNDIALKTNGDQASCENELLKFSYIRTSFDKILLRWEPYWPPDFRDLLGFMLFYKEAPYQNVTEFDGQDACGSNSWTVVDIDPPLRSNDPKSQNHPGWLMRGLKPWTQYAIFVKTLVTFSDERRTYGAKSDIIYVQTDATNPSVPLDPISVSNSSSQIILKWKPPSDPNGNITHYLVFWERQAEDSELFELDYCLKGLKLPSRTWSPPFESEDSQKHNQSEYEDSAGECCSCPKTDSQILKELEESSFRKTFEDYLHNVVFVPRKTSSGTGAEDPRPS
T2 sequence (P06213 763-1382 limits assumed): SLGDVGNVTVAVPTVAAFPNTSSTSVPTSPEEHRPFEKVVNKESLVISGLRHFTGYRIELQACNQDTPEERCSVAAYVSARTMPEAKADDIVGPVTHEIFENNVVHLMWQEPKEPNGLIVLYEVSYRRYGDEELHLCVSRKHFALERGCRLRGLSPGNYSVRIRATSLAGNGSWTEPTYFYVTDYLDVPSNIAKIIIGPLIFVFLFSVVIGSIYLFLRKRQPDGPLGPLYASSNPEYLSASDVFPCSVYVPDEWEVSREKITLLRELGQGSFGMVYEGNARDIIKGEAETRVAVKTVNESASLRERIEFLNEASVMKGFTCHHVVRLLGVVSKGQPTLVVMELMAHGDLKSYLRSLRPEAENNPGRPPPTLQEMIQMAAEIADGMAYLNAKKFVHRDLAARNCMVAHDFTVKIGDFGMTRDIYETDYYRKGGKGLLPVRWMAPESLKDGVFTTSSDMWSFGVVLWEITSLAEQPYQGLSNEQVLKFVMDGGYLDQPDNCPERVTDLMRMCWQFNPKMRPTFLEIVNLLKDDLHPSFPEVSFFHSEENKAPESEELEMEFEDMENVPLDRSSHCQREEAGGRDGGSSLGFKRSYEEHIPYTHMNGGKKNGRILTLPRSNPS
Voltage-gated inwardly rectifying potassium channel KCNH2, sequence (Q12809 whole entry): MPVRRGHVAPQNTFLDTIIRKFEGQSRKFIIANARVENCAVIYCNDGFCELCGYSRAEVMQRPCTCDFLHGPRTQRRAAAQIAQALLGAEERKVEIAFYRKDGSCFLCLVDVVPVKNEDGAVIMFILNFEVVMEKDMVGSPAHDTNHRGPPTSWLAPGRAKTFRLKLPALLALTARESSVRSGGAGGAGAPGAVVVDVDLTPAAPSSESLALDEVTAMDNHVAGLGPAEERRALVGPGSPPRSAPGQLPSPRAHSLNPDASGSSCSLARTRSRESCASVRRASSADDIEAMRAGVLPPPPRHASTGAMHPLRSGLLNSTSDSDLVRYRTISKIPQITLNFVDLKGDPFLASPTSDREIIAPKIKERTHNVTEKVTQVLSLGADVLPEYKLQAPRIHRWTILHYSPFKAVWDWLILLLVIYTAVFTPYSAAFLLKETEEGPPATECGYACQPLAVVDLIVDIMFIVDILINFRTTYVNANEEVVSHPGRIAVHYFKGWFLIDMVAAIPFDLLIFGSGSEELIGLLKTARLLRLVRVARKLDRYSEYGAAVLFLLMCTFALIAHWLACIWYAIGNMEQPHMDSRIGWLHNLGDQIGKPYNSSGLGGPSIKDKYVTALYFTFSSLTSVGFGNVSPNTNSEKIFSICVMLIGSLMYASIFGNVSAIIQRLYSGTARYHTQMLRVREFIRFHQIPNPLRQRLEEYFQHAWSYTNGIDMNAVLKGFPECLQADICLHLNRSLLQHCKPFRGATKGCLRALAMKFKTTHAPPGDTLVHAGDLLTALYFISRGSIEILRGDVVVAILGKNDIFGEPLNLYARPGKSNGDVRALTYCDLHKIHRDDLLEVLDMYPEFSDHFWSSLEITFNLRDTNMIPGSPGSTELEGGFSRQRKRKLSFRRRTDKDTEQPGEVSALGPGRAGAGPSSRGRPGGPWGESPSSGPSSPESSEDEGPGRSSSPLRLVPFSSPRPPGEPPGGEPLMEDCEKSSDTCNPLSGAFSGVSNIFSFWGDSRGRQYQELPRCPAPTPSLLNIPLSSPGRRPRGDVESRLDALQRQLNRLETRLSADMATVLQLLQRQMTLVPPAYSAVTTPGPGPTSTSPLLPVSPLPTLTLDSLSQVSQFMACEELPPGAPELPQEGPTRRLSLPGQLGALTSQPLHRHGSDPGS

C=CC(=O)Nc1cc(Nc2ncc(Cl)c(-c3cnn4ccccc34)n2)c(OC)cc1N(C)CCN(C)C
inhibition in vivo at 10 mg/kg (Mus musculus [1]): 30%
inhibition in vivo at 10 mg/kg (Mus musculus [2]): 38%
inhibition in vivo at 10 mg/kg/day (NCI-H1975 [3]): 130%
inhibition in vivo at 10 mg/kg (Mus musculus [4]): 80%
inhibition in vivo at 10 mg/kg (Mus musculus [5]): 10%
inhibition in vivo at 10 mg/kg/day (A-431 [6]): 35%
inhibition in vivo at 10 mg/kg (Mus musculus [7]): 89%
inhibition in vivo at 10 mg/kg (Mus musculus [8]): 93%
inhibition in vivo at 10 mg/kg/day ([9]; Homo sapiens, PC-9, 168 h, read-out: TGI): 243%
inhibition in vivo at 10 mg/kg (Mus musculus [10]): 94%
IC50 [11]: 6 nM
inhibition (Insulin receptor [12]): 99%
inhibition [13]: 97%
IC50 (Insulin receptor [14]): 9 nM
inhibition in vivo at 10 mg/kg (Mus musculus [15]): 100%
inhibition in vivo at 10 mg/kg (Mus musculus [16]): 60%
inhibition in vivo at 10 mg/kg (Mus musculus [17]): 83%

C=CC(=O)Nc1cc(Nc2nccc(-c3cn(C)c4ccccc34)n2)c(OC)cc1N(C)CCN(C)C [OSIMERTINIB]
hepatocyte CLint [18]: 27 µL/min/1e6 cells
TGI (A-431 [19]): 79%
Activity (Rattus norvegicus [20]): Non-toxic
fraction unbound [21]: 0.032
Activity (Rattus norvegicus [22]): Non-toxic
TGI (A-431 [24]): 65%
bioavailability [25]: 45%
TGI (NCI-H1975 [3]): 148%
TGI (NCI-H1975 [26]): 134%
Activity (Cavia porcellus): Non-toxic
logD [27]: 3.4
TGI (A-431 [6]): 102%
GI50 [28]: 264 nM
Drug metabolism (Plasma [29]): metabolite_detected
fraction unbound [30]: 0.034
clearance (Rattus norvegicus [31]): 45 mL/min/kg
hepatocyte CLint [32]: 3.4 µL/min/1e6 cells
TGI (NCI-H1975 [33]): 120%
solubility thermodynamic [34]: 7 µM (≈ 3.5 µg/mL)
Cmax [35]: 380 nM
TGI [9]: 267%
GI50 [36]: 23 nM
Drug metabolism (Plasma [37]): metabolite_detected
Drug metabolism (Plasma [38]): metabolite_detected
Fu (Plasma [39]): 2.9%
IC50 [11]: 2900 nM
half-life [40]: 2.02 h
IC50 (Insulin receptor [14]): 912 nM
Drug metabolism (Plasma [41]): metabolite_detected

C=CC(=O)Nc1cc(Nc2nccc(-c3cn(C)c4ccccc34)n2)c(OC)cc1N(C)CCNC
hepatocyte CLint [18]: 50 µL/min/1e6 cells
fraction unbound [21]: 0.023
GI50 (NCI-H1975 [23]; Homo sapiens, NCI-H1975, 72 h): 19 nM
logD [27]: 2.3
GI50 ([28]; Homo sapiens, Calu-3, 72 h): 537 nM
fraction unbound [30]: 0.0105
Drug metabolism (Plasma [42]): metabolite_detected
hepatocyte CLint [32]: < 3 µL/min/1e6 cells
solubility thermodynamic [34]: 14 µM (≈ 6.8 µg/mL)
IC50 [43]: > 33000 nM
GI50 ([36]; Homo sapiens, PC-9, 72 h): 15 nM
fraction unbound [44]: 0.039
IC50 [11]: 1600 nM
Drug metabolism (Plasma [45]): metabolite_detected

CN(C)C/C=C/C(=O)Nc1cc2c(Nc3ccc(F)c(Cl)c3)ncnc2cc1O[C@H]1CCOC1 [AFATINIB]
inhibition in vivo at 5 mg/kg/day (A-431 [19]; Mus musculus, A-431, 168 h, read-out: TGI): 84%
inhibition in vivo at […] (A-431 [24]; A-431, 168 h, read-out: TGI): 84%
inhibition in vivo at 10 mg/kg/day (NCI-H1975 [3]): 25%
inhibition in vivo at 5 mg/kg/day (NCI-H1975 [26]; Mus musculus, NCI-H1975, 168 h, read-out: TGI): 23%
inhibition in vivo at 20 mg/kg/day (NCI-H1975 [46]): 74%
inhibition in vivo at 10 mg/kg/day (A-431 [6]): 131%
inhibition in vivo at […] (NCI-H1975 [33]; NCI-H1975, 168 h, read-out: TGI): 16%
inhibition in vivo at 20 mg/kg/day (A-431 [47]): 158%
